Data published in US20190046478A1, “BIOLOGICAL MARKER FOR IDENTIFYING CANCER PATIENTS FOR TREATMENT WITH A BIGUANIDE” (THE ROYAL INSTITUTION FOR THE ADVANCEMENT OF …, priority 2017, published 2019).
Like-named read-outs stand apart in the source and are kept apart here.

Assays:
Raji cells = assay: Cell viability assay in Raji lymphoma cells; assay type: cell-based, human; conditions: 48 hours, FIG. 3B
Procedure: (§1) Eμ-Myc cells were cultured on a layer of irradiated Ink4a-null MEF feeder cells in DMEM and IMDM medium (50:50 mix) supplemented with 10% fetal bovine serum (FBS), 20000 U/mL penicillin, 7 mM streptomycin, 2 mM glutamine, and β-mercaptoethanol. Raji cells were cultured in RPMI medium supplemented with 10% FBS, 20000 U/mL penicillin, 7 mM streptomycin, and 2 mM glutamine. Cells were grown at 37° C. in a humidified atmosphere supplemented with 5% (v/v) CO2.
(§2) Cells were seeded at a density of 1×10^5 cells/mL in 3.5 cm dishes, and cell counts determined via trypan blue exclusion using a TC20 Automated Cell Counter (Biorad). For viability measurements, cells were stained with Fixable Viability Dye eFluor 780 (eBioscience), and analyzed using a Gallios flow cytometer (Beckman Coulter, Fullerton, Calif.) and FlowJo software (Tree Star, Ashland, Oreg.).

Eμ-Myc cells [1] = assay: Seahorse XF96 respirometry (OCR and ECAR); assay type: cell-based, mouse; conditions: for Oxygen consumption of +17˜92 cells / Oxygen consumption of control cells: 100 μM phenformin or 10 μM Compound 1, after roughly four hours; for Oxygen consumption rate (OCR) / Extracellular acidification rate (ECAR): acute treatment, across a range of doses; for Oxygen consumption rate (OCR): FIG. 2A, 8A; for Extracellular acidification rate (ECAR): FIG. 2B, 8B; for IC50: after two hours treatment, read-out: Dose that produced a roughly 50% decrease in OCR from baseline
Procedure: 7.5×10^4 lymphoma cells were plated per well of an XF96 Seahorse plate in 140 μL of unbuffered DMEM containing 25 mM glucose and 2 mM glutamine, followed by centrifugation at 500×g for five minutes. Seahorse plates were pre-coated with poly-D-lysine (Sigma-Aldrich) to enhance cell adherence. XF assays consisted of sequential mix (3 min), pause (3 min), and measurement (5 min) cycles, allowing for determination of OCR and ECAR every […]. […] For media metabolite determination, cells were seeded at 1×10^5 cells/mL in 3.5 cm plates, and cultured for two days prior to harvesting medium. Culture medium was analyzed for extracellular metabolites (glucose and lactate) using a BioProfile Analyzer (NOVA Biomedical) and normalized to cell number.

Eμ-Myc cells [2] = assay: Mitochondrial ROS by MitoSox staining and flow cytometry; assay type: cell-based, mouse; conditions: 2 hours, 100 μM phenformin or 10 μM Compound 1, FIG. 5A
Description: Statistics for all figures are as follows: *, p<0.05; **, p<0.01; ***, p<0.001.

Eμ-Myc lymphoma cells = conditions: for Protection of viability of +17˜92 cells by pyruvate supplementation, lower doses / Protection of viability of +17˜92 cells by pyruvate supplementation, higher concentrations: 1 mM pyruvate, FIG. 5D, 10C; for Protection of viability of +17˜92 cells by pyruvate supplementation, lower doses: 10 μM Compound 1 or 30 μM phenformin; for Protection of viability of +17˜92 cells by pyruvate supplementation, higher concentrations: 100 μM Compound 1 or 300 μM phenformin
Procedure: as §1, §2

[3] = tested on: Eμ-Myc lymphoma cells (control or +17˜92); assay: Tumor xenograft assay, survival of nude mice injected with lymphoma cells; assay type: in vivo, CD-1 nude mice; conditions: drinking water ad lib, 0.9 mg/mL phenformin or 0.8 mg/mL Compound 1, FIG. 6B
Procedure: Lymphoma cells were resuspended in HBSS at a concentration of 5×10^6 cells/mL, and 10^6 cells/200 μL were injected intravenously into CD-1 nude mice (Charles River).

AMPK = assay: Immunoblot for pAMPK (T172) and total AMPK; assay type: cell-based, mouse; conditions: two hours, 100 μM phenformin or 10 μM Compound 1, FIG. 3C
Description: Lymphoma cell lines were subjected to SDS-PAGE and immunoblotting using CHAPS and AMPK lysis buffers. Primary antibodies against β-actin, 4EBP (total, phospho-T36/47, and phospho-S65), rS6 (total and p S235/236), Raptor (total and pS792), and AMPKα (total and phospho-T172) were obtained from Cell Signaling Technology (Danvers, Mass.). Primary antibody against LKB1 (Ley 37D/G6) was obtained from Santa Cruz Biotechnology (Dallas, Tex., USA). For qPCR quantification of mature miRNAs, Qiazol was used isolate RNA, miRNEasy Mini kit was used to purify miRNAs and total mRNA, and cDNA synthesized using the miScript II RT kit (Qiagen). Quantitative PCR was performed using the SensiFAST SYBR Hi-ROX kit (Bioline) and an AriaMX Real-Time PCR system (Agilent Technologies). miScript primer assays (Qiagen) were used to detect mature miRNAs of the miR-17˜92 cluster, with miRNA expression normalized relative to U6 RNA levels.

Eμ-Myc cells [4] = assay: LC-MS analysis of GSH/GSSG, NADP+/NADPH and NAD+/NADH ratios; assay type: cell-based, mouse; conditions: 2 hours
Procedure: Aqueous supernatants were dried by vacuum centrifugation with sample temperature maintained at −4° C. (Labconco, Kansas City Mo., USA). Pellets were subsequently resuspended in 25 μL of H2O as the injection buffer. Chromatographic separation was performed on a Scherzo SM-C18 column 3 μm, 3.0×150 mm (Imtakt Corp, JAPAN). The chromatographic gradient started at 100% mobile phase A (0.2% formic acid in water) with a 2 min hold followed with a 6 min gradient to 80% B (0.2% formic acid in MeOH) at a flow rate of 0.4 mL/min. This was followed by a 5 min hold time at 100% mobile phase B and a subsequent re-equilibration time (6 min) before next injection. […] Analyte ionization was accomplished using ESI in positive ionization mode. […] MS data were acquired in full scan mode mass range: m/z 100-1000; scan time: 1.4 s; data collection: centroid and profile modes. […] For all LC/MS analyses, 1 μL of sample was injected. The column temperature was maintained at 10° C. Data were quantified by integrating the area under the curve of each compound using MassHunter Quant (Agilent Technologies, Santa Clara, Calif., USA). Each metabolite's accurate mass ion was extracted (EIC) using a 10 ppm window. Relative concentrations were determined from external calibration curves.

Eμ-Myc cells [5] = assay: GC-MS analysis of metabolite abundance and 13C-glutamine labelling; assay type: cell-based, mouse; conditions: for 13C-glutamine incorporation into glutamate and α-ketoglutarate, +17˜92 versus treated control cells: 100 μM phenformin or 10 μM Compound 1, FIG. 4B; for Aspartate abundance: +17˜92 and control cells, 2 hours, 100 μM phenformin or 10 μM Compound 1, FIG. 4A
Procedure: Cellular metabolites were extracted and analyzed by GC-MS. […] Cells were washed twice with saline, then lysed in ice-cold 80% methanol and sonicated. For GC-MS analysis, D-myristic acid (750 ng/sample) was added to metabolite extracts as an internal standard prior to drying samples under a N2 stream. […] The oven program for all metabolite analyses started at 60° C. held for 1 min, then increasing at a rate of 10° C./min until 320° C. Bake-out was at 320° C. for 10 min. […] Mass isotopomer distribution for TCA cycle intermediates was determined using a custom algorithm developed at McGill University. After correction for natural ^13C abundances, a comparison was made between non-labeled (^12C) and ^13C-labeled abundances for each metabolite. Metabolite abundance was expressed relative to the internal standard (D-myristic acid) and normalized to cell number.

[6] = 100 μM phenformin or 10 μM Compound 1, FIG. 5C

Row | Compound | Viability of Raji cells with or without miR-17˜92 overexpression over a range of doses (Raji cells) | Oxygen consumption of +17˜92 cells (Eμ-Myc cells [1]) | Oxygen consumption of control cells (Eμ-Myc cells [1]) | Oxygen consumption rate (OCR) (Eμ-Myc cells [1]) | Extracellular acidification rate (ECAR) (Eμ-Myc cells [1]) | Mitochondrial ROS in +17˜92 cells (Eμ-Myc cells [2]) | Mitochondrial ROS levels in control cells (Eμ-Myc cells [2]) | Protection of viability of +17˜92 cells by pyruvate supplementation, lower doses (Eμ-Myc lymphoma cells; 48 hours) | Protection of viability of +17˜92 cells by pyruvate supplementation, higher concentrations (Eμ-Myc lymphoma cells; 48 hours) | Lifespan of mice bearing +17˜92 cells [3] | AMPK phosphorylation in +17˜92 cells (AMPK) | 13C-glutamine incorporation into glutamate and α-ketoglutarate, +17˜92 versus treated control cells (Eμ-Myc cells [5]) | Aspartate abundance (Eμ-Myc cells [5]) | also measured
1 | N=C(NC(=N)N1CCCC1)Nc1cccc(OC(F)(F)F)c1 [Compound 1, N1-pyrrolidine-N5-(3-trifluoromethoxy)phenyl biguanide] | followed a similar trend, albeit at higher doses | never eliminated | effectively non-respiring | decreased | commensurate increases | significantly increased mitochondrial ROS | neither phenformin nor Compound 1 treatment were sufficient to increase | some protective benefit | not apparent | significantly prolonged the lifespan | largely unaffected | more significant reduction | reduced aspartate abundance | IC50 (Eμ-Myc cells [1]): 10 µM; Speed of OCR reduction versus equivalent doses of phenformin (Eμ-Myc cells [1]; higher doses, 5 min post-injection, FIG. 2C): more rapid reductions in OCR; Extent of OCR reduction versus equivalent doses of phenformin (Eμ-Myc cells [1]; lower doses, longer time periods (260 min), FIG. 2D): more profound reductions in OCR; Viability of +17˜92 cells at doses not toxic in control cells (Eμ-Myc lymphoma cells; 48 hours, FIG. 3A): viability of +17˜92 cells was affected; GSH/GSSG ratio (Eμ-Myc cells [4]; 100 μM phenformin or 10 μM Compound 1, FIG. 5B): no significant changes; NADP+/NADPH ratio in +17˜92 cells (Eμ-Myc cells [4]; [6]): increase their NADP+/NADPH ratio; NADP+/NADPH ratio in control cells (Eμ-Myc cells [4]; [6]): not control cells
2 | [H]/N=C(/N)N/C(=N/[H])NCCc1ccccc1 [phenformin, reference compound] | followed a similar trend, albeit at higher doses | never eliminated | effectively non-respiring | decreased | commensurate increases | approached significance | neither phenformin nor Compound 1 treatment were sufficient to increase | some protective benefit | not apparent | significantly prolonged the lifespan | reduced AMPK phosphorylation than control cells | not | reduced aspartate abundance | IC50 (Eμ-Myc cells [1]; Mus musculus, 2 h): 100 µM; Viability of Δ/Δ (miR-17˜92 deleted) versus fl/fl cells (Eμ-Myc lymphoma cells; 48 hour treatment, FIG. 1A): more resistant; Sensitivity (viability) of +17˜92 versus control Eμ-Myc lymphoma cells (Eμ-Myc lymphoma cells; 48 hours, FIG. 1C): significantly more sensitive than controls
